Data taken from patent US12325701B2, “YKL-40 inhibitors and their therapeutic” (Molecure S.A., priority 2022, dated 2025).
Where a name gives a salt, the structure may show the parent alone.

Target: YKL-40 (YKL-40-histag, chitin binding site) (Homo sapiens (Human), UniProt P36222)
Assay: YKL-40:4 assay, competitive chitin binding site AlphaScreen
Settings: not given

Sequence of YKL-40 (YKL-40-histag, chitin binding site) (P36222 22-383): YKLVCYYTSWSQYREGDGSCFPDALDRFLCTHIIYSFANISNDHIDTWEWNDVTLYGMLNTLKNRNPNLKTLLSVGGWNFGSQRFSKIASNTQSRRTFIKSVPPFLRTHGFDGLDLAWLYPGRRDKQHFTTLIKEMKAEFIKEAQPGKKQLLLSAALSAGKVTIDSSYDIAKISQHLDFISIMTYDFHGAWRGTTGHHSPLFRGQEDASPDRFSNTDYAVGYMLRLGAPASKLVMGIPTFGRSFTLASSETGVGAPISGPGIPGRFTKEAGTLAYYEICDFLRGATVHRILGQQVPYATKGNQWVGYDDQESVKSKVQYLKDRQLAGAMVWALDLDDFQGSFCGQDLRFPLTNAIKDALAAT

SMILES	IC50
CC(C)c1nc(N2CCC(N3C[C@H](C)OC[C@@H]3Cc3ccc(Cl)cc3)CC2)no1 [Compound 163, (2S,5S)-5-(4-chlorobenzyl)-4-(1-(5-isopropyl-1,2,4-oxadiazol-3-yl)piperidin-4-yl)-2-methylmorpholine 2,2,2-trifluoroacetate]	> 10 µM
C[C@H]1CN(C2CCN(c3noc(=O)[nH]3)CC2)[C@@H](Cc2ccc(Cl)cc2)CO1 [Compound 165, 3-(4-((2S,5S)-5-(4-chlorobenzyl)-2-methylmorpholino)piperidin-1-yl)-1,2,4-oxadiazol-5(4H)-one 2,2,2-trifluoroacetate]	> 10 µM
C[C@H]1CN(C2CCN(c3ncc(C(F)(F)F)o3)CC2)[C@@H](Cc2ccc(Cl)cc2)CO1 [Compound 168, (2S,5S)-5-(4-chlorobenzyl)-2-methyl-4-(1-(5-(trifluoromethyl)oxazol-2-yl)piperidin-4-yl)morpholine 2,2,2-trifluoroacetate]	> 10 µM
C[C@H]1CN(C2CCN(c3ncnc(Cl)n3)CC2)[C@@H](Cc2ccc(Cl)cc2)CO1 [Compound 169, (2S,5S)-4-(1-(4-chloro-1,3,5-triazin-2-yl)piperidin-4-yl)-5-(4-chlorobenzyl)-2-methylmorpholine 2,2,2-trifluoroacetate]	> 10 µM
C[C@H]1CN(C2CCN(c3ncnc(O)n3)CC2)[C@@H](Cc2ccc(Cl)cc2)CO1 [Compound 170]	> 10 µM
COc1ncnc(N2CCC(N3C[C@H](C)OC[C@@H]3Cc3ccc(Cl)cc3)CC2)n1 [Compound 171, (2S,5S)-5-(4-chlorobenzyl)-4-(1-(4-methoxy-1,3,5-triazin-2-yl)piperidin-4-yl)-2-methylmorpholine 2,2,2-trifluoroacetate]	> 10 µM
Cc1ncnc(N2CCC(N3C[C@H](C)OC[C@@H]3Cc3ccc(Cl)cc3)CC2)n1 [Compound 172, (2S,5S)-5-(4-chlorobenzyl)-2-methyl-4-(1-(4-methyl-1,3,5-triazin-2-yl)piperidin-4-yl)morpholine 2,2,2-trifluoroacetate]	> 10 µM
C[C@H]1CN(C2CCN(c3ncnc(C#N)n3)CC2)[C@@H](Cc2ccc(Cl)cc2)CO1 [Compound 173, 4-(4-((2S,5S)-5-(4-chlorobenzyl)-2-methylmorpholino)piperidin-1-yl)-1,3,5-triazine-2-carbonitrile 2,2,2-trifluoroacetate]	> 10 µM
C[C@H]1CN(C2CCN(c3ncns3)CC2)[C@@H](Cc2ccc(Cl)cc2)CO1 [Compound 179, (2S,5S)-4-(1-(1,2,4-thiadiazol-5-yl)piperidin-4-yl)-5-(4-chlorobenzyl)-2-methylmorpholine 2,2,2-trifluoroacetate]	> 10 µM
Cc1noc(N2CCC(N3C[C@H](C)OC[C@@H]3Cc3ccc(Cl)cc3)CC2)n1 [Compound 188, (2S,5S)-5-(4-chlorobenzyl)-2-methyl-4-(1-(3-methyl-1,2,4-oxadiazol-5-yl)piperidin-4-yl)morpholine 2,2,2-trifluoroacetate]	> 10 µM
C[C@H]1CN(C2CCN(c3cccc(C#N)n3)CC2)[C@@H](Cc2ccc(Cl)cc2)CO1 [Example 18, 6-(4-((2S,5S)-5-(4-chlorobenzyl)-2-methylmorpholino)piperidin-1-yl)picolinonitrile 2,2,2-trifluoroacetate]	> 10 µM
C[C@H]1CN(C2CCN(c3ncc(F)cc3F)CC2)[C@@H](Cc2ccc(Cl)cc2)CO1 [Example 25, (2S,5S)-5-(4-chlorobenzyl)-4-(1-(3,5-difluoropyridin-2-yl)piperidin-4-yl)-2-methylmorpholine 2,2,2-trifluoroacetate]	> 10 µM
C[C@H]1CN(C2CCN(c3cccnc3)CC2)[C@@H](Cc2ccc(Cl)cc2)CO1 [Example 27, (2S,5S)-5-(4-chlorobenzyl)-2-methyl-4-(1-(pyridin-3-yl)piperidin-4-yl)morpholine 2,2,2-trifluoroacetate]	> 10 µM

Results, then the compound that gave them:

IC50	SMILES
> 10 µM	C[C@H]1CN(C2CCN(c3ncccc3O)CC2)[C@@H](Cc2ccc(Cl)cc2)CO1 [Compound 160, 2-(4-((2S,5S)-5-(4-chlorobenzyl)-2-methylmorpholino)piperidin-1-yl)pyridin-3-ol 2,2,2-trifluoroacetate]
> 10 µM	COc1cccnc1N1CCC(N2C[C@H](C)OC[C@@H]2Cc2ccc(Cl)cc2)CC1 [Compound 162, (2S,5S)-5-(4-chlorobenzyl)-4-(1-(3-methoxypyridin-2-yl)piperidin-4-yl)-2-methylmorpholine 2,2,2-trifluoroacetate]
> 10 µM	C[C@H]1CN(C2CCN(c3noc(C(F)(F)F)n3)CC2)[C@@H](Cc2ccc(Cl)cc2)CO1 [Compound 164, (2S,5S)-5-(4-chlorobenzyl)-2-methyl-4-(1-(5-(trifluoromethyl)-1,2,4-oxadiazol-3-yl)piperidin-4-yl)morpholine 2,2,2-trifluoroacetate]
> 10 µM	C[C@H]1CN(C2CCN(c3nnn[nH]3)CC2)[C@@H](Cc2ccc(Cl)cc2)CO1 [Compound 166, (2S,5S)-4-(1-(1H-tetrazol-5-yl)piperidin-4-yl)-5-(4-chlorobenzyl)-2-methylmorpholine 2,2,2-trifluoroacetate]
> 10 µM	C[C@H]1CN(C2CCN(c3cc(=O)[nH]cn3)CC2)[C@@H](Cc2ccc(Cl)cc2)CO1 [Compound 167, 6-(4-((2S,5S)-5-(4-chlorobenzyl)-2-methylmorpholino)piperidin-1-yl)pyrimidin-4(3H)-one 2,2,2-trifluoroacetate]
> 10 µM	C[C@H]1CN(C2CCN(c3ncnc(N)n3)CC2)[C@@H](Cc2ccc(Cl)cc2)CO1 [Compound 174, 4-(4-((2S,5S)-5-(4-chlorobenzyl)-2-methylmorpholino)piperidin-1-yl)-1,3,5-triazin-2-amine 2,2,2-trifluoroacetate]
> 10 µM	C[C@H]1CN(C2CCN(c3ncnc(N(C)C)n3)CC2)[C@@H](Cc2ccc(Cl)cc2)CO1 [Compound 175, 4-(4-((2S,5S)-5-(4-chlorobenzyl)-2-methylmorpholino)piperidin-1-yl)-N,N-dimethyl-1,3,5-triazin-2-amine 2,2,2-trifluoroacetate]
> 10 µM	Cc1nsc(N2CCC(N3C[C@H](C)OC[C@@H]3Cc3ccc(Cl)cc3)CC2)n1 [Compound 180, (2S,5S)-5-(4-chlorobenzyl)-2-methyl-4-(1-(3-methyl-1,2,4-thiadiazol-5-yl)piperidin-4-yl)morpholine 2,2,2-trifluoroacetate]
> 10 µM	C[C@H]1CN(C2CCN(c3nncs3)CC2)[C@@H](Cc2ccc(Cl)cc2)CO1 [Compound 181, (2S,5S)-4-(1-(1,3,4-thiadiazol-2-yl)piperidin-4-yl)-5-(4-chlorobenzyl)-2-methylmorpholine 2,2,2-trifluoroacetate]
> 10 µM	Cc1nnc(N2CCC(N3C[C@H](C)OC[C@@H]3Cc3ccc(Cl)cc3)CC2)s1 [Compound 182, (2S,5S)-5-(4-chlorobenzyl)-2-methyl-4-(1-(5-methyl-1,3,4-thiadiazol-2-yl)piperidin-4-yl)morpholine 2,2,2-trifluoroacetate]
> 10 µM	Cc1cccnc1N1CCC(N2C[C@H](C)OC[C@@H]2Cc2ccc(Cl)cc2)CC1 [Example 16, (2S,5S)-5-(4-chlorobenzyl)-2-methyl-4-(1-(3-methylpyridin-2-yl)piperidin-4-yl)morpholine 2,2,2-trifluoroacetate]
> 10 µM	C[C@H]1CN(C2CCN(c3ccc(C#N)cn3)CC2)[C@@H](Cc2ccc(Cl)cc2)CO1 [Example 19, 6-(4-((2S,5S)-5-(4-chlorobenzyl)-2-methylmorpholino)piperidin-1-yl)nicotinonitrile 2,2,2-trifluoroacetate]
> 10 µM	C[C@H]1CN(C2CCN(c3cc(F)ncn3)CC2)[C@@H](Cc2ccc(Cl)cc2)CO1 [Example 24, (2S,5S)-5-(4-chlorobenzyl)-4-(1-(6-fluoropyrimidin-4-yl)piperidin-4-yl)-2-methylmorpholine 2,2,2-trifluoroacetate]
> 10 µM	C[C@H]1CN(C2CCN(c3ccncn3)CC2)[C@@H](Cc2ccc(Cl)cc2)CO1 [Example 26, (2S,5S)-5-(4-chlorobenzyl)-2-methyl-4-(1-(pyrimidin-4-yl)piperidin-4-yl)morpholi-ne 2,2,2-trifluoroacetate]
> 10 µM	C[C@H]1CN(C2CCN(c3ccncc3)CC2)[C@@H](Cc2ccc(Cl)cc2)CO1 [Example 28, (2S,5S)-5-(4-chlorobenzyl)-2-methyl-4-(1-(pyridin-4-yl)piperidin-4-yl)morpholine 2,2,2-trifluoroacetate]

Same assay, conditions: competition with biotinylated compound 4, 20 nM; YKL-40-histag 2.5 nM; read-out: YKL-40:4, IC50/Kd (IC50 range)

IC50	SMILES
> 10 µM	C[C@H]1CN(C2CCN(c3ccccc3)CC2)[C@@H](Cc2ccc(Cl)cc2)CO1 [Example 37, (2S,5S)-5-(4-chlorobenzyl)-2-methyl-4-(1-phenylpiperidin-4-yl)morpholine dihydro-chloride]

Target: YKL-40 (YKL-40: heparan sulfate interaction) (Homo sapiens (Human), UniProt P36222)
Assay: YKL-40:HS assay, heparan sulfate interference AlphaScreen
Settings: read-out: YKL-40:HS, IC50/max % inh (max % inh)

Sequence of YKL-40 (YKL-40: heparan sulfate interaction) (P36222 22-383): as above

SMILES	inhibition
CN1C[C@H](Cc2ccc(Cl)cc2)N(C2CCN(c3cc(Cl)ccn3)CC2)C[C@@H]1CN1CCOCC1 [Compound 51, 4-(((2S,5S)-5-(4-chlorobenzyl)-4-(1-(4-chloropyridin-2-yl)piperidin-4-yl)-1-methyl-piperazin-2-yl)methyl)morpholine hydrochloride]	52%
CN1C[C@H](Cc2ccc(Cl)cc2)N(C2CCN(c3ccccn3)CC2)C[C@@H]1Cc1ccc(Cl)cc1 [Compound 63, (2S,5S)-2,5-bis(4-chlorobenzyl)-1-methyl-4-(1-(pyridin-2-yl)piperidin-4-yl)piperazine 2,2,2-trifluoroacetate]	85%

Second part, the compound after the results:

inhibition	SMILES
75%	CN1C[C@H](Cc2ccc(Cl)cc2)N(C2CCN(c3cc(Cl)ccn3)CC2)C[C@@H]1Cn1ccnc1 [Compound 82, (2R,5S)-2-((1H-imidazol-1-yl)methyl)-5-(4-chlorobenzyl)-4-(1-(4-chloropyridin-2-yl)piperidin-4-yl)-1-methylpiperazine hydrochloride]
85%	CNC(=O)CN1C[C@H](Cc2ccc(Cl)cc2)N(C2CCN(c3ccccn3)CC2)C[C@@H]1CC(C)C [Compound 95, 2-((2S,5S)-5-(4-chlorobenzyl)-2-isobutyl-4-(1-(pyridin-2-yl)piperidin-4-yl)piperazin-1-yl)-N-methylacetamide 2,2,2-trifluoroacetate]
